Test results taken from patent US5461057A, “Hydro-ethano-indeno-pyridines” (priority 1994, dated 1995).
Counter-ions that a name gives are not always drawn. Like-named read-outs stand apart in the source and are kept apart here.

Assays:
[1] = test system: LOX human melanoma cell adhesion to human fibronectin; assay: LOX melanoma cell adhesion to fibronectin; assay type: cell-based; settings: Homo sapiens, LOX; for inhibition at 10 µM: read-out: % Inhibition at 10 μM; for inhibition at 50 µM: read-out: % Inhibition at 50 μM; for IC50: Table 4, 1 hour adhesion, read-out: LOX FN IC50
Experimental: (§1) Adhesion assays were run essentially as described previously (Pai et al., J. Biomed. Res. 2: 53, 1992). 96-well plates were coated with human fibronectin (140 ng/well), human vitronectin (75 ng/well), human collagen I (100 ng/well), human collagen IV (100 ng/well), human fibrinogen (1 μg/well), murine laminin (600 ng/well), or polylysine, and incubated overnight in a humidified 37° C. incubator. Excess fibronectin or other substrate was then removed and 0.2 ml of 2 mg/ml bovine serum albumin (BSA)in Dulbecco's phosphate-buffered saline (DPBS) was added to each well, incubated for 2 hours at 37° C., and removed. LOX human melanoma cells, M27 murine lung carcinoma cells or B16F10 mouse melanoma cells were detached from tissue culture flasks with RPMI medium containing 0.2M urea and 10 mM EDTA, and 0.18 ml of cells were added to each well to a final cell concentration of 1×10^5 cells/well. For inhibition studies 20 μl of 10× compound was added to the wells prior to cell addition. Cells were allowed to adhere for 1 hour at 37° C. The wells were then gently washed twice with 0.2 ml DPBS. The fluorescent dye calcein AM (Molecular Probes, Eugene Oreg.) in DPBS (0.1 ml of 1 μM) was added to each well, and the plates were incubated for 1 hour at room temperature. Adherent cells were quantitated by reading the fluorescence on a Cytofluor 2300 fluorescent plate reader (Millipore) at 485 nm excitation and 530 nm emission.
LOX FN-IC50 value for inhibition of adhesion of LOX human melanoma cells to fibronectin coated on a plastic surface.

[2] = test system: histamine-induced dyspnea; assay: Bronchodilator (in vivo) Guinea Pig Dyspnea; settings: oral, one hour before histamine challenge
Experimental: Unanesthetized guinea pigs (250-350 g), fasted overnight were placed in individual closed aerosol chambers which were connected to a Monoghan Ultrasonic nebulizer. The nebulizer can deliver an ultrasonic fog of uniform particles in a range of 1-8 microns. A 0.1% solution of histamine is aerosolized into the chambers causing the guinea pigs to develop dyspnea. The test drug was given orally one hour before the histamine challenge and the onset of dyspnea was recorded. Saline control animals developed dyspnea within 90-120 seconds of aerosol exposure. […] The data was expressed as the number tested over the number survived. The model was sensitive to bronchodilator and H1 antihistamine activity. Further information relating this test can be obtained from the following two publications which are hereby incorporated by reference: Dungan, K. W. and Lish, P. M. J Allergy 32:139-151 (1961). and Lish, P. M., Robbins, S. I. and Petres E. L. J. Pharmacol. Exp. Therap. 153 L 1538 (1966 ).

[3] = test system: LOX human melanoma cell adhesion to polylysine; assay: LOX melanoma cell adhesion to polylysine; assay type: cell-based; settings: read-out: Poly Lys IC50
Experimental: as §1

[4] = Calcein cytotoxicity assay; assay type: cell-based; settings: human, lox melanoma cells; 2 hours, calcein AM assay; read-out: 2 Hr Tox LD50
Experimental: LOX human melanoma cells were detached from tissue culture flasks with RPMI medium containing 0.2M urea and 10 mM EDTA, and 0.18 ml of cells were added to each well to a final cell concentration of 5×10^4 cells/well. 20 μl of 10× compound was added to the wells prior to cell addition. Cells were incubated with the compound at 37° C. for 1 hour or 5 hour as indicated. Calcein AM in DPBS (0.02 ml of 5 μM) was added to each well, and the plates were incubated for an additional 1 hour at room temperature. Viable cells were quantitated by reading the fluorescence on a Cytofluor 2300 fluorescent plate reader at 485 nm excitation and 530 nm emission.

pulmonary resistance = assay: Pulmonary Resistance in the Anesthetized Rat; assay type: in vivo; settings: 0.5 mpk, i.v., mean of 5 animals, % decrease in pre-drug baseline resistance; for inhibition in vivo at 0.5 mg/kg: Rattus norvegicus, iv, read-out: Pulmonary Resistance in Rats, % Inhibition
Experimental: Rats (400-500 g) anesthetized with dialurethane were surgically prepared with tracheal and esophageal catheters. These catheters were connected to pressure transducers for recording of air flow, tracheal and esophageal pressures. These pressures formed the basis for measurement of pulmonary resistance. Inhibition of pulmonary resistance is a reflection of bronchodilation.
All compounds were tested i. v. in 5 separate animals. All data are expressed in % decrease in the pre-drug baseline resistance and each number given is the mean of the 5 animals tested.
The model is sensitive to bronchodilator activity.
Further information relating this test can be obtained from the following publications which are hereby incorporated by reference: Comroe et al, J. Appl. Physio. 4:439-44 (1959); Dungan et al J. Pharmacol. Exp. Therap. 164:290-301(1968); and Mead, J. et al. J. Appl. Physio. 5:779-796 (1953).

[5] = Cavia porcellus, 1 h, 100 mg/kg, read-out: DYSP survivors (converted)
[6] = Cavia porcellus, 1 h, 50 mg/kg, read-out: DYSP survivors (converted)

Row | Structure (SMILES) | inhibition at 10 µM [1] [%] | inhibition at 50 µM [1] [%] | responders at 100 mg/kg [2, 5] [%] | IC50 [1] [µM] | IC50 [3] [µM] | DYSP survivors ([2]; 100 mg/kg) | CC50 at 2 h [4] [µM] | further results
1 | COc1ccc(C2(O)c3c(Cl)cccc3C3C4CCC(CC32)N4C)cc1 (centres unmarked) [BBB] | -11.8 | 5.6 | 33.3 |  |  |  |  | 
2 | CN1C2CCC1C1=C(C2)C(c2ccccc2)c2cc(O)ccc21 (centres unmarked) [BB] |  | 6.5 |  |  |  |  |  | inhibition at 10 µM ([1]; 1 h): -38.2%
3 | COc1ccc(C2(O)c3cc(F)ccc3C3C4CCC(CC32)N4C)cc1 (centres unmarked) [CCC] |  |  | 66.7 |  |  |  |  | 
4 | CN1C2CCC1C1C(=C(c3ccc(F)cc3)c3cc(Cl)ccc31)C2 (centres unmarked) [Compound E] | 49.5 | 100 |  | 6.2 | 46.2 | 0/3 | 21.8 | 
5 | CN1C2CCC1C1C(=C(c3cccc(F)c3)c3cc(F)ccc31)C2 (centres unmarked) [Compound G] | 38.1 | 101 |  | 5.3 | 63 | 1/3 | 29.5 | 
6 | CN1C2CCC1C1C(=C(c3ccc(F)cc3)c3cc(F)ccc31)C2 (centres unmarked) [Compound H] | 37.5 | 101 |  | 6.5 | 23.7 | 1/3 | 36.9 | Pulmonary Resistance in Rats, % Inhibition (pulmonary resistance): 20%
7 | CN1C2CCC1C1C(=C(c3ccc(Cl)c(C(F)(F)F)c3)c3ccccc31)C2 (centres unmarked) [Compound N] | 7 | 101 |  | 19.4 | 25.3 | 0/3 | 23.8 | Pulmonary Resistance in Rats, % Inhibition (pulmonary resistance): 33%
8 | CN1C2CCC1C1C(=C(c3cccc(Cl)c3)c3ccccc31)C2 (centres unmarked) [D] | 56.5 | 101 |  | 7.4 | 71.9 | 1/3 | 34.6 | 
9 | CN1C2CCC1C1=C(C2)C(c2cccs2)c2ccccc21 (centres unmarked) [GGG] | -27.6 | 64.4 |  |  |  |  |  | 
10 | COc1ccc(C2c3ccccc3C3C2CC2CCC3N2C)cc1 (centres unmarked) [GG] | 7.1 | 39.1 |  |  |  | 2/3 |  | 
11 | CN1C2CCC1C1c3ccccc3C(O)(c3ccc(Cl)cc3)C1C2 (centres unmarked) [HH] | 2.5 | 36.9 | 33.3 |  |  |  |  | 
12 | CN1C2CCC1C1c3ccc(Cl)cc3C(O)(c3ccc(F)cc3)C1C2 (centres unmarked) [II] | 5.4 | 34.8 | 100 |  |  |  |  | 
13 | CN1C2CCC1C1C(=C(c3ccccc3)c3cc(F)ccc31)C2 (centres unmarked) [I] | 35.6 | 100 |  | 7.6 | 22.8 | 1/3 | 55.9 | 
14 | CSc1ccc(C2(O)c3ccccc3C3C4CCC(CC32)N4C)cc1 (centres unmarked) [KK] | 7.2 | 32.8 |  |  |  |  |  | responders at 50 mg/kg [2, 6]: 0%
15 | CN1C2CCC1C1C(=C(c3cccc(C(F)(F)F)c3)c3ccccc31)C2 (stereo not drawn) [L, 1 (SR):3(RS)-1,3-Ethano-2-methyl-5-(m-trifluoromethylphenyl)-1,3,4,9b-tetrahydro-H-indeno[1,2-c] pyridine. HCl 0.75H2 O.] | 23.7 | 100 | 100 | 20 | 80.4 |  | 29.7 | inhibition in vivo at 0.5 mg/kg (pulmonary resistance): 14%
16 | CN1C2CCC1C1c3cc(Cl)ccc3C(O)(c3ccc(F)cc3)C1C2 (centres unmarked) [LL] | -12.2 | 26.6 |  |  |  |  |  | 
17 | CN1C2CCC1C1C(=C(c3ccccc3)c3ccc(F)cc31)C2 (centres unmarked) [M] | 18.4 | 99.6 |  | 12.5 | 72.7 | 0/3 | 39.8 | 
18 | CN1C2CCC1C1c3ccccc3C(O)(c3cccc(C(F)(F)F)c3)C1C2 (centres unmarked) [NN] | 9.4 | 24.7 |  |  |  |  |  | responders at 50 mg/kg [2, 6]: 0%
19 | Cc1ccc(C2(O)c3ccccc3C3C4CCC(CC32)N4C)cc1 (centres unmarked) [OO] | 6.6 | 23.7 | 33.3 |  |  |  |  | inhibition in vivo at 0.5 mg/kg (pulmonary resistance): -18%
20 | CN1C2CCC1C1C(=C(c3cccc(F)c3)c3ccccc31)C2 (centres unmarked) [O] | 5.2 | 97.1 |  | 11.2 | 130 | 0/3 | 72 | 
21 | CN1C2CCC1C1C(=C(c3cccc(F)c3)c3ccc(F)cc31)C2 (centres unmarked) [P] | -2.4 | 99.8 |  | 11.7 | 297 |  | 64.3 | DYSP survivors ([2]; 50 mg/kg): 0/3; Pulmonary Resistance in Rats, % Inhibition (pulmonary resistance): 12%
22 | CN1C2CCC1C1c3ccccc3C(O)(c3cccc(Cl)c3)C1C2 (centres unmarked) [QQ] | 9.2 | 21.1 |  |  |  |  |  | responders at 50 mg/kg [2, 6]: 33.3%; inhibition in vivo at 0.5 mg/kg (pulmonary resistance): -30%
23 | CN1C2CCC1C1c3ccccc3C(O)(c3cccc(F)c3)C1C2 (centres unmarked) [RR] | 13.8 | 17.6 | 66.7 |  |  |  |  | responders at 50 mg/kg [2, 6]: 0%; inhibition in vivo at 0.5 mg/kg (pulmonary resistance): 28%
24 | CN1C2CCC1C1c3ccccc3C(O)(c3ccccc3C(F)(F)F)C1C2 (centres unmarked) [TT] | 16.7 | 16.1 |  |  |  |  |  | responders at 50 mg/kg [2, 6]: 0%; inhibition in vivo at 0.5 mg/kg (pulmonary resistance): 7%
25 | CN1C2CCC1C1c3cc(Cl)ccc3C(O)(c3ccccc3)C1C2 (centres unmarked) [VV] | 0.9 | 15.9 | 100 |  |  |  |  | 
26 | CN1C2CCC1C1c3ccccc3C(O)(c3ccc4c(c3)OCO4)C1C2 (centres unmarked) [WW] | 1.2 | 11.9 |  |  |  |  |  | inhibition in vivo at 0.5 mg/kg (pulmonary resistance): 39%
27 | COc1ccc(C2(O)c3cc(Cl)ccc3C3C4CCC(CC32)N4C)cc1 (centres unmarked) [XX, 7-Chloro-5-(p-methoxyphenyl)-2-methyl-1,3-ethano-1,2,3,4,4a,9b-hexahydro-5H-indeno[1,2-c]pyridin-5-ol] | -23.1 | 8.1 | 100 |  |  |  |  | responders at 10 mg/kg ([2]; Cavia porcellus, 1 h, 10 mg/kg, read-out: DYSP survivors (converted)): 66.7%; responders at 20 mg/kg ([2]; Cavia porcellus, 1 h, 20 mg/kg, read-out: DYSP survivors (converted)): 66.7%; responders at 50 mg/kg [2, 6]: 100%
28 | CN1C2CCC1C1c3ccc(Cl)cc3C(O)(c3ccccc3)C1C2 (centres unmarked) [YY] | -14.6 | 7.4 | 66.7 |  |  |  |  | responders at 50 mg/kg [2, 6]: 100%
29 | COc1ccc(C2(O)c3ccc(Cl)cc3C3C4CCC(CC32)N4C)cc1 (centres unmarked) [ZZ] | -9.7 | 7 | 33.3 |  |  |  |  | 
